In brackets after ≈: the same amount, converted by molar mass. Read-outs that look alike come from different tables or passages of the source.
Experiments:
tumor cell lines = assay: Cell growth inhibition assay (MTT), summary statements over several cell lines; assay type: cell-based; settings: read-out: antiproliferative IC50
Procedure: (§1) Cells were plated in 96-well plates (100 µL/well) at the following concentrations: 30,000 cells/mL (HepG2, U87 MG, T98G, C6, LNCaP, PC3, and HT-29 cells) or 15,000 cells/mL (HeLa and MCF-7 cells). Previous experiments were performed to choose the optimal cell concentration (70–80% confluence) and avoid the formation of cell aggregates. Cells were incubated in complete DMEM or RPMI 1640 medium (see above) at 37 °C and 5% CO2 atmosphere for 24 h to allow for cell attachment to the plate. Then, every compound was added (10 µL/well) to a final concentration of 10 µM. Non-treated cells were used as negative controls. The antiproliferative activity of compounds was measured 72 h after the treatments using the MTT reagent (3-[4,5-dimethylthiazol-2-yl]-2,5-diphenyltetrazolium bromide), (MTT Thiazolyl Blue Tetrazolium Bromide, Sigma-Aldrich, St. Louis, MO, USA) dissolved in PBS at 5 mg/mL. Compounds showing antiproliferative effects at 10 µM were selected to determine their IC50 value. For that purpose, compounds were used at different concentrations ranging from 10^−10 to 10^−2 M. Measurements were performed in triplicate, and each experiment was repeated three times. The IC50 value was determined for every compound using Origin software (OriginLab, Washington, USA). To study the sensitivity to MDR efflux pumps of compounds, the IC50 values were determined by following the same procedure but in the presence of verapamil (final concentration of 10 µM).

HEK-293 cells = assay: Cell growth inhibition assay (MTT), non-tumorigenic cells; assay type: cell-based, human; settings: Homo sapiens, HEK293, 72 h after drug exposure, non-tumorigenic cell line
Procedure: (§2) The cell lines were obtained from ATTC (Manassas, VA, USA). HeLa (human cervix epithelioid carcinoma), MCF7 (human breast adenocarcinoma), HepG2 (human hepatocellular carcinoma), U87 MG (human glioblastoma), T98G (human glioblastoma), GL261 (murine glioma), LNCaP (human prostate cancer), PC-3 (human prostate cancer), and HEK-293 (human embryonic kidney) were grown in Dulbecco’s modified Eagle’s medium (DMEM, Gibco, Waltham, MA, USA), supplemented with 10% (v/v) heat-inactivated fetal bovine serum (HIFBS, Sigma-Aldrich, St. Louis, MO, USA)), 2 mM L-glutamine, 100 μg/mL streptomycin, and 100 units/mL penicillin (Gibco, Waltham, MA, USA) at 37 °C in saturated humidity atmosphere containing 95% air and 5% CO2. Cell line HT-29 (human colon carcinoma) was grown in Roswell Park Memorial Institute (RPMI) 1640 medium (Gibco, Whaltman, MA, USA) supplemented with 10% HIFBS, 100 μg/mL streptomycin, and 100 units/mL penicillin (Gibco, Whaltman, MA, USA) at 37 °C in humidified 95% air and 5% CO2 atmosphere. MycoAlert kit (Lonza, Norwest, Australia) was used to routinely check the presence of mycoplasma, and only mycoplasma-free cells were employed in the experiments.
as §1

HT-29 cells [1] = assay: Cell growth inhibition (MTT) in the presence of 10 µM verapamil (sensitivity to MDR efflux pumps); assay type: cell-based, human; settings: 10 µM verapamil (P-gp/MDR1 inhibitor)
Procedure: as §1

bovine brain tubulin = assay: Tubulin polymerization inhibition (turbidimetry); assay type: biochemical; settings: for IC50: concentration inhibiting 50% of microtubular protein polymerization in vitro, read-out: TPI IC50; for Tubulin polymerization inhibition (in words): 10 µM; for % TPI: compounds tested at 10 µM, with respect to the negative control
Procedure: Microtubular protein was isolated from calf brain following the modified Shelanski method, based on temperature-dependent assembly/disassembly of tubulin [45]. The protein was stored at −80 °C, and its concentration was determined using the Bradford method before each use. Tubulin polymerization, which occurs when heating a buffered tubulin sample from 4 °C to 37 °C, is accompanied by an increase in the absorbance (at 450 nm) of the sample that was monitored by a Helios α spectrophotometer. […] Then, the temperature was adjusted to 4 °C, and the temperature being shifted to 37 °C allowed for the assembly process of tubulin. The turbidity caused by tubulin polymerization was measured by the increased absorbance at 450 nm. The increase in absorbance obtained for the control sample (without the ligand), which we considered to be 100% tubulin polymerization (0% inhibition), compared with the increase in absorbance determined for the sample containing ligands yielded the degree of tubulin polymerization inhibition (TPI), which is expressed as a percentage value. For the compounds displaying TPI values over 50% at 10 µM, the IC50 value for TPI was calculated. Measurements were performed in triplicate in two independent experiments using microtubular protein from different preparations.

GL261 cells = assay: Cell growth inhibition assay (MTT); assay type: cell-based, murine; settings: Mus musculus, GL261, 72 h after drug exposure
Procedure: as §2, §1

T98G cells = assay: Cell growth inhibition assay (MTT); assay type: cell-based, human; settings: Homo sapiens, T98G, 72 h after drug exposure
Procedure: as §2, §1

HepG2 cells = assay: Cell growth inhibition assay (MTT); assay type: cell-based, human; settings: Homo sapiens, HepG2, 72 h after drug exposure
Procedure: as §2, §1

LNCaP cells = assay: Cell growth inhibition assay (MTT); assay type: cell-based, human; settings: Homo sapiens, LNCaP, 72 h after drug exposure
Procedure: as §2, §1

PC-3 cells = assay: Cell growth inhibition assay (MTT); assay type: cell-based, human; settings: Homo sapiens, PC-3, 72 h after drug exposure
Procedure: as §2, §1

HeLa cells = assay: Cell growth inhibition assay (MTT); assay type: cell-based, human; settings: Homo sapiens, HeLa, 72 h after drug exposure
Procedure: as §2, §1

U87MG cells = assay: Cell growth inhibition assay (MTT); assay type: cell-based, human; settings: Homo sapiens, U-87 MG; MTT, 72 h after drug exposure
Procedure: as §2, §1

MCF7 cells = assay: Cell growth inhibition assay (MTT); assay type: cell-based, human; settings: Homo sapiens, MCF7; MTT, 72 h after drug exposure
Procedure: as §2, §1

HT-29 cells [2] = assay: Cell growth inhibition assay (MTT); assay type: cell-based, human; settings: Homo sapiens, HT-29, 72 h after drug exposure
Procedure: as §2, §1

[3] = Aqueous solubility, shake-flask method; assay type: physicochemical; settings: pH 7.0 buffer, pH 7, aqueous buffer, thermodynamic from solid, shaking flask, buffered media at pH 7.0, mean of three
Procedure: The aqueous solubility of compounds was measured in a Helios Alfa Spectrophotometer. Calibration lines at the maximum wavelength of absorbance were determined for each compound. Then, following the shake-flask method, a suspension of 5 mg of each compound in 500 µL in pH 7.0 buffer was stirred for 72 h at room temperature. The mixture was then filtrated over a […] filter to remove the insoluble fraction. The concentration of the compound in the resulting saturated solution was determined via UV absorbance measurement and interpolation in the calibration line. The aqueous solubility values are given as the average of three independent measurements.

[4] = the rest of the tumor cell lines (other than HeLa, HepG2, MCF7, U87MG)

| SMILES | IC50 (tumor cell lines; HeLa, HepG2, MCF7, and U87MG) [µM] | IC50 (tumor cell lines; [4]) [µM] | IC50 (HT-29 cells [1]) [µM] | IC50 (bovine brain tubulin) [µM] | IC50 (HepG2 cells) [µM] | IC50 (LNCaP cells) [µM] | IC50 (PC-3 cells) [µM] | IC50 (HeLa cells) [µM] | IC50 (U87MG cells) [µM] | IC50 (MCF7 cells) [µM] | IC50 (HT-29 cells [2]) [µM] | solubility at 72 h [3] [µg/mL] | IC50 (tumor cell lines; glioblastoma cell lines) [µM] | IC50 (HEK-293 cells) [µM] | IC50 (GL261 cells) [µM] | IC50 (T98G cells) [µM] | Tubulin polymerization inhibition (in words) (bovine brain tubulin) | % TPI (bovine brain tubulin) [%] |
| --- | --- | --- | --- | --- | --- | --- | --- | --- | --- | --- | --- | --- | --- | --- | --- | --- | --- | --- |
| COc1ccc2nc(N(C=O)Cc3ccc4ccccc4c3)sc2c1 [Compound 18, N-(6-methoxybenzo[d]thiazol-2-yl)-N-(naphthalen-2-ylmethyl)formamide] | – | – | > 10 | > 10 | > 10 | > 10 | > 10 | > 10 | > 10 | > 10 | > 10 | < 9 | – | > 10 | > 10 | > 10 | not able to inhibit tubulin polymerization | 0 |
| COc1ccc2nc(N(Cc3[nH]cnc3C)C(C)=O)sc2c1 [Compound 22, N-(6-methoxybenzo[d]thiazol-2-yl)-N-((4-methyl-1H-imidazol-5-yl)methyl)acetamide] | – | – | > 10 | > 10 | > 10 | > 10 | > 10 | > 10 | > 10 | > 10 | > 10 | 171 (≈ 540 µM) | – | > 10 | > 10 | > 10 | not able to inhibit tubulin polymerization | 0 |
| COc1ccc2nc(N(Cc3ccccc3)C(C)=O)sc2c1 [Compound 23, N-benzyl-N-(6-methoxybenzo[d]thiazol-2-yl)acetamide] | – | – | > 10 | > 10 | 4.29 | 4.95 | > 10 | 3.9 | 7.51 | 6.3 | > 10 | 13 (≈ 41.6 µM) | – | > 10 | 6.33 | > 10 | – | 3 |
| COc1ccc2nc(N(Cc3ccc4ccccc4c3)C(C)=O)sc2c1 [Compound 24, N-(6-methoxybenzo[d]thiazol-2-yl)-N-(naphthalen-2-ylmethyl)acetamide] | – | – | > 10 | > 10 | > 10 | > 10 | > 10 | > 10 | > 10 | > 10 | > 10 | < 9 | – | > 10 | > 10 | > 10 | not able to inhibit tubulin polymerization | 0 |
| Cn1nnc2c(C(N)=O)ncn2c1=O [TMZ, temozolomide, reference compound] | – | – | > 10 | – | > 10 | > 10 | > 10 | > 10 | 135 | > 10 | > 10 | – | > 100 | > 10 | 179 | 241 | – | – |

The next compounds have a lower IC50 (HT-29 cells [1]) than those just listed; values first:

| IC50 (tumor cell lines; HeLa, HepG2, MCF7, and U87MG) [µM] | IC50 (tumor cell lines; [4]) [µM] | IC50 (HT-29 cells [1]) [µM] | IC50 (bovine brain tubulin) [µM] | IC50 (HepG2 cells) [µM] | IC50 (LNCaP cells) [µM] | IC50 (PC-3 cells) [µM] | IC50 (HeLa cells) [µM] | IC50 (U87MG cells) [µM] | IC50 (MCF7 cells) [µM] | IC50 (HT-29 cells [2]) [µM] | solubility at 72 h [3] [µg/mL] | IC50 (tumor cell lines; glioblastoma cell lines) [µM] | SMILES | IC50 (HEK-293 cells) [µM] | IC50 (GL261 cells) [µM] | IC50 (T98G cells) [µM] | Tubulin polymerization inhibition (in words) (bovine brain tubulin) | % TPI (bovine brain tubulin) [%] |
| --- | --- | --- | --- | --- | --- | --- | --- | --- | --- | --- | --- | --- | --- | --- | --- | --- | --- | --- |
| ~1 | 2 to 3 | 3.47 | > 10 | 2.4 | 1.52 | 2.11 | 1.78 | 1.61 | 1.53 | 3.51 | 48 (≈ 177 µM) | – | COc1ccc2nc(NCc3ccccn3)sc2c1 [Compound 1, 6-methoxy-N-(pyridin-2-ylmethyl)benzo[d]thiazol-2-amine] | > 10 | 2.17 | 2.4 | – | – |
| ~1 | 2 to 3 | 2.15 | > 10 | 1.19 | 1.43 | 1.55 | 1.27 | 1.32 | 1.17 | 2.23 | 57 (≈ 210 µM) | – | COc1ccc2nc(NCc3cccnc3)sc2c1 [Compound 2, 6-methoxy-N-(pyridin-3-ylmethyl)benzo[d]thiazol-2-amine] | > 10 | 1.91 | 2.11 | – | – |
| – | – | 2.93 | > 10 | 1.88 | 2.07 | 3.01 | 1.55 | 1.41 | 2.03 | 2.54 | 87 (≈ 278 µM) | – | COc1ccc2nc(N(Cc3ccccn3)C(C)=O)sc2c1 [Compound 19, N-(6-methoxybenzo[d]thiazol-2-yl)-N-(pyridin-2-ylmethyl)acetamide] | > 10 | 1.38 | 2.44 | – | 43 |
| – | – | 1.48 | 8.1 | 0.813 | 1.39 | 1.62 | 1.03 | 0.632 | 0.911 | 1.52 | 93 (≈ 297 µM) | – | COc1ccc2nc(N(Cc3cccnc3)C(C)=O)sc2c1 [Compound 20, N-(6-methoxybenzo[d]thiazol-2-yl)-N-(pyridin-3-ylmethyl)acetamide] | 9.9 | 0.622 | 0.825 | – | 57 |
| – | – | 2.55 | > 10 | 1.49 | 1.81 | 2.63 | 1.22 | 1.27 | 1.97 | 2.23 | 90 (≈ 287 µM) | – | COc1ccc2nc(N(Cc3ccncc3)C(C)=O)sc2c1 [Compound 21, N-(6-methoxybenzo[d]thiazol-2-yl)-N-(pyridin-4-ylmethyl)acetamide] | > 10 | 1.59 | 2.3 | – | 41 |

From paper PMC10301603, “Potent and Selective Benzothiazole-Based Antimitotics with Improved Water Solubility: Design, Synthesis, and Evaluation as Novel Anticancer Agents” (Pharmaceutics, 2023)
